Experimental data published in US20240358842A1, “PROTEIN STABILIZING COMPOUNDS CONTAINING USP7 LIGANDS” (Stablix, Inc., priority 2021, published 2024).
pIC50, pKd: −log10 of the molar value. Read-outs that look alike come from different tables or passages of the source.

How the values were obtained:
USP7 CD + UBL 1-5 = target: T1, USP7 CD + UBL 1-5 (Homo sapiens, UniProt Q93009); assay: Surface plasmon resonance assay (SPR); type: binding
T1 construct: USP7 CD +
Procedure: The surface plasmon resonance experiments were performed using a Cytiva (formerly GE Healthcare) Biacore 8K equipped with a Series S Sensor Chip SA. The ligands were immobilized via a biotin-modified biotin acceptor peptide. USP7 Ligands were diluted in running buffer (HBS-P+2% DMSO; 10 mM HEPES, pH 7.4, 150 mM NaCl, 1 mM DTT, 0.05% P20, 2% DMSO) to 100 μg/mL and injected at […] until a density between 500-10,000 RU was reached on flow-cell two of each channel, and flow cell one was left blank to serve as a reference surface. Both surfaces were washed until a stable baseline was achieved then 30 startup cycles to condition the surface. To collect kinetic and steady-state binding data, the small molecule analytes were prepared in three-fold dilution series in HBS-P+2% DMSO running buffer. Analytes were injected over both flow cells at a flow rate of […] at 25° C. The complex was allowed to associate for 60 seconds and dissociate for 300 seconds. Data were collected at 10 Hz. The data were fit to a simple 1:1 interaction model global data analysis within Cytiva Biacore Insight Evaluation Software.

USP7 = USP7 (Homo sapiens, UniProt Q93009); assay: Ub-Rho cleavage assay; type: biochemical; settings: Ub-Rho substrate, recombinant USP7; read-out: Ub (Rho) USP7.1 (IC50)
Sequence of USP7 (Q93009 whole entry): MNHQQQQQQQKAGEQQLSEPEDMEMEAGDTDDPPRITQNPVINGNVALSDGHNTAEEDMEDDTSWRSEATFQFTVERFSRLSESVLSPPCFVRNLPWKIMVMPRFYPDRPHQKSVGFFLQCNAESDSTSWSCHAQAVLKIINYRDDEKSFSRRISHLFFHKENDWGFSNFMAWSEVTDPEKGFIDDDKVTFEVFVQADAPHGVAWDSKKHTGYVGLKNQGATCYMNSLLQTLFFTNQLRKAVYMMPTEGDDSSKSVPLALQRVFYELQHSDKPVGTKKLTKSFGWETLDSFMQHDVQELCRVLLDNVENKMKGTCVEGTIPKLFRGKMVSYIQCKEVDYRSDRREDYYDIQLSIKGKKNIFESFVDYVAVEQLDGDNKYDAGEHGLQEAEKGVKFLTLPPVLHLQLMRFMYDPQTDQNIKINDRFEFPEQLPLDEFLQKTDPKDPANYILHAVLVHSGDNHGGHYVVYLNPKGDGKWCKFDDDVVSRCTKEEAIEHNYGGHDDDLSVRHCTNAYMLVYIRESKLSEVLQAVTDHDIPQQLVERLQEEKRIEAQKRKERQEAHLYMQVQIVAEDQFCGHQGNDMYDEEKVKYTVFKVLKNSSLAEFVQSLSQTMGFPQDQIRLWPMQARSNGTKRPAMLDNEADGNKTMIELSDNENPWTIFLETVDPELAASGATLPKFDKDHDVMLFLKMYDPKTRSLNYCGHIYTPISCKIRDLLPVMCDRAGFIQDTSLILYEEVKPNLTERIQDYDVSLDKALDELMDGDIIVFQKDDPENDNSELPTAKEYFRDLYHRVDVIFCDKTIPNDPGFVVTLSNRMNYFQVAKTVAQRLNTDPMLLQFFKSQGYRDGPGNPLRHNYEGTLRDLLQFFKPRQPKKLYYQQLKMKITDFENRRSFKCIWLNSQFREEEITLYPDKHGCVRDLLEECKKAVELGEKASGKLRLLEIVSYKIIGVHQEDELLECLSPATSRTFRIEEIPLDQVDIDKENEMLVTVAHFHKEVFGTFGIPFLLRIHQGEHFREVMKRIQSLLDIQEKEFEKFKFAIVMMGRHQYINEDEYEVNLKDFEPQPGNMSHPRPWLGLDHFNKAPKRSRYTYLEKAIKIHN
Procedure: All fluorescence measurements were performed on a Molecular Devices FlexStation3 with excitation at 480 nm and emission 540 nm, PMT Gain: Medium, Flash Number: 10. […] Assay buffer for all measurements was 50 mM HEPES, 100 mM NaCl, 0.5 mM EDTA, 1 mM TCEP, 0.1 mg/ml BSA, 0.01% Tween-20, pH 7.8. […] Serial dilutions were made with a Mosquito HTS (SPT Labtech) nanoliter liquid handler. 200 nL of each compound in duplicate or DMSO control were transferred to the assay plate. The first two columns served as positive controls. 9.8 μl per well of USP7 working solution was added to the assay plate. Compound+Protein was incubated for 25 min at 25° C. 10 uL of Ub-Rho substrate was added per well and incubated for an additional 15 min at 25° C. Fluorescence was then measured. Percent response relative to DMSO controls was calculated in GraphPad or Scinamic, and the data was fitted to a non-linear regression to determine IC50 values.

[1] = steady-state KD, read-out: SPR USP7 CD + UBL 1-5 (KD_ss)
[2] = kinetic KD, read-out: SPR USP7 CD + UBL 1-5 (KD_kinetic)

T1 sequence (Q93009 208-1102 limits assumed): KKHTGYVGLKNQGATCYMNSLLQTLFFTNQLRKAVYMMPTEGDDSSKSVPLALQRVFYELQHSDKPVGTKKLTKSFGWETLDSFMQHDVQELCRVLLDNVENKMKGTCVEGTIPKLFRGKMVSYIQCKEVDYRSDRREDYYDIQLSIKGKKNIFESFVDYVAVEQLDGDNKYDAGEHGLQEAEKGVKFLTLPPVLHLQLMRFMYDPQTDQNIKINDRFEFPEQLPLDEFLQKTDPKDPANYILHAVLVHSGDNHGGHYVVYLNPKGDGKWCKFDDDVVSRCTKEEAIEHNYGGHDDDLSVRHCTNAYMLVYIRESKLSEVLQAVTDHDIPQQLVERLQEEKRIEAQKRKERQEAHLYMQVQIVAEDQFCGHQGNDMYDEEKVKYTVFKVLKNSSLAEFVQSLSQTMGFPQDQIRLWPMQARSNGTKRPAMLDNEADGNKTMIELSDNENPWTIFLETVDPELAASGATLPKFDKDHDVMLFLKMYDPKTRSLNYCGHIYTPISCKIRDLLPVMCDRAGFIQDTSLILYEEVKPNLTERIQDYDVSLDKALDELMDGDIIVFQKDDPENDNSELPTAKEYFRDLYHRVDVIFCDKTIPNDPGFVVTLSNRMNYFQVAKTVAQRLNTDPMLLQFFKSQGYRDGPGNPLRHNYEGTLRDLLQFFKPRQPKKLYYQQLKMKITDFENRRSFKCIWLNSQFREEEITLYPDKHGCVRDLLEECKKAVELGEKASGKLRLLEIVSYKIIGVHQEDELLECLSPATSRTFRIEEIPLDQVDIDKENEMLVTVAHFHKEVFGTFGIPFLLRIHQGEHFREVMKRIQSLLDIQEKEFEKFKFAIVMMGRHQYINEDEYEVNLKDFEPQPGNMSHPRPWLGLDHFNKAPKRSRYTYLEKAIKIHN

`C[C@H](CC(=O)N1CCC(O)(Cn2cnc(NCCN3CCN(CCN=[N+]=[N-])CC3)cc2=O)CC1)c1ccccc1` [U69] showed a pKd (USP7 CD + UBL 1-5; [1]) of over 6.00 and a pIC50 (USP7) of over 6.00.

`CN1CCCn2nc(C(=O)Nc3nc4ccc(NS(=O)(=O)c5cccs5)cc4s3)cc2C1` [U77] showed a pKd (USP7 CD + UBL 1-5; [2]) of 4.00 to 6.00, a pKd (USP7 CD + UBL 1-5; [1]) of 4.00 to 6.00 and a pIC50 (USP7) of under 4.00.

`O=C(O)c1ccc(Nc2nc3ccc(NS(=O)(=O)c4cccs4)cc3s2)nn1` [U84] was tested, and the pKd (USP7 CD + UBL 1-5; [1]) was 4.00 to 6.00 and the pIC50 (USP7) was under 4.00.

Work on `C[C@H](CC(=O)N1CCC(O)(Cn2cnc(NCCN3CCN(CCN)CC3)cc2=O)CC1)c1ccccc1` [U37] yielded a pKd (USP7 CD + UBL 1-5; [1]) of over 6.00 and a pIC50 (USP7) of over 6.00.

`C[C@H](CC(=O)C1CCC(O)(Cn2cnc3cc(C#CCN=[N+]=[N-])ccc3c2=O)CC1)c1ccccc1` (stereo partly drawn) [U28] gave a pKd (USP7 CD + UBL 1-5; [1]) of over 6.00 and a pIC50 (USP7) of 4.00 to 6.00.

`CN1CCCn2nc(C(=O)Nc3nc4ccc(N(C)S(=O)(=O)c5cccs5)cc4s3)cc2C1` [U111] was tested, and the pKd (USP7 CD + UBL 1-5; [1]) was under 4.00 and the pIC50 (USP7) was under 4.00.

Molecule `Cc1cc(Cl)cc(-c2ccnc3cc(CN4C(=O)CCC4=O)sc23)c1OC1CCN(CCCNC(=O)CCNC(=O)OC(C)(C)C)CC1` [U39] has a pKd (USP7 CD + UBL 1-5; [1]) of over 6.00 and a pIC50 (USP7) of over 6.00.

`C[C@H](CC(=O)N1CCC(O)(Cn2cnc3cc(Cl)ccc3c2=O)CC1)c1ccccc1` [U4] gave a pKd (USP7 CD + UBL 1-5; [1]) of 4.00 to 6.00 and a pIC50 (USP7) of 4.00 to 6.00.

`CN1CCC(C(=O)Nc2nc3ncc(NS(=O)(=O)c4cccs4)cc3s2)CC1` [U79] was tested, and the pKd (USP7 CD + UBL 1-5; [1]) was under 4.00 and the pIC50 (USP7) was under 4.00.

In the case of `CCc1c(-c2ccc(OCCN)cc2)cnc(N)c1-c1ccc(O)cc1` [U21], the pKd (USP7 CD + UBL 1-5; [1]) was 4.00 to 6.00 and the pIC50 (USP7) was 4.00 to 6.00.

`CN(C)Cc1cc(C(=O)Nc2nc3ccc(NS(=O)(=O)c4cccs4)cc3s2)nn1C` [U101] gave a pKd (USP7 CD + UBL 1-5; [1]) of 4.00 to 6.00 and a pIC50 (USP7) of under 4.00.

Work on `CCOC(=O)NCc1ccc(-c2ccc3n[nH]cc3c2)c(CC)c1-c1ccc(O)cc1` [U78] yielded a pKd (USP7 CD + UBL 1-5; [1]) of 4.00 to 6.00 and a pIC50 (USP7) of 4.00 to 6.00.

With `C[C@H](CC(=O)N1CCC(O)(Cn2cnc3cc(C#CCN)ccc3c2=O)CC1)c1ccccc1` [U29] the pKd (USP7 CD + UBL 1-5; [1]) was over 6.00 and the pIC50 (USP7) was under 4.00.

Molecule `Cc1cc(Cl)cc(-c2ccnc3cc(CN4C(=O)CCC4=O)sc23)c1OC1CCN(C(=O)CCOCCOCCNC(=O)OC(C)(C)C)CC1` [U33] has a pKd (USP7 CD + UBL 1-5; [1]) of 4.00 to 6.00 and a pIC50 (USP7) of 4.00 to 6.00.

`CCc1c(-c2ccc(C(=O)NC)cc2)cnc(N)c1-c1ccc(O)cc1` [U11] gave a pKd (USP7 CD + UBL 1-5; [1]) of 4.00 to 6.00 and a pIC50 (USP7) of 4.00 to 6.00.

`Cc1cc(Cl)cc(-c2ccnc3cc(CN4C(=O)CCC4=O)sc23)c1OC1CCN(CCCNC(=O)CCCCCCNC(=O)OC(C)(C)C)CC1` [U40] gave a pKd (USP7 CD + UBL 1-5; [1]) of over 6.00 and a pIC50 (USP7) of over 6.00.

`C[C@H](CC(=O)N1CCC(O)(Cn2cnc3c(-c4ccc(CNC(=O)OC(C)(C)C)cc4)n(C)nc3c2=O)CC1)c1ccccc1` [U14] gave a pKd (USP7 CD + UBL 1-5; [2]) of over 6.00, a pKd (USP7 CD + UBL 1-5; [1]) of over 6.00 and a pIC50 (USP7) of over 6.00.

With `CCc1c(-c2ccc(C(=O)NCCCNC(=O)CCCCC(=O)OC(C)(C)C)nc2)cnc(N)c1-c1ccc(O)cc1` [U49] the pKd (USP7 CD + UBL 1-5; [1]) was 4.00 to 6.00 and the pIC50 (USP7) was 4.00 to 6.00.

`Cc1cc(Cl)cc(-c2ccnc3cc(CN4C(=O)CCC4=O)sc23)c1CC1CCN(C(=O)CN)CC1` [U22] showed a pKd (USP7 CD + UBL 1-5; [1]) of over 6.00 and a pIC50 (USP7) of over 6.00.

In the case of `CCc1c(-c2ccc(C(=O)NCCCNC(=O)CCOCCNC(=O)OC(C)(C)C)nc2)cnc(N)c1-c1ccc(O)cc1` [U55], the pKd (USP7 CD + UBL 1-5; [1]) was 4.00 to 6.00 and the pIC50 (USP7) was 4.00 to 6.00.

`CCc1c(-c2ccc(C(=O)NC)nc2)cnc(CNC(=O)OC(C)(C)C)c1-c1ccc(O)cc1` [U47] was tested, and the pKd (USP7 CD + UBL 1-5; [1]) was 4.00 to 6.00 and the pIC50 (USP7) was 4.00 to 6.00.

Work on `C[C@H](CC(=O)N1CCC(O)(Cn2cnc3c(-c4ccc(CNC(=O)CCCCCCCNC(=O)OC(C)(C)C)cc4)n(C)nc3c2=O)CC1)c1ccccc1` [U133] yielded a pKd (USP7 CD + UBL 1-5; [2]) of over 6.00 and a pIC50 (USP7) of over 6.00.

`CN1CCC(C(=O)Nc2nc3ccc(NS(=O)(=O)c4ccc5c(c4)CC(=O)N5C)cc3s2)CC1` [U72] was tested, and the pKd (USP7 CD + UBL 1-5; [1]) was under 4.00 and the pIC50 (USP7) was under 4.00.

`Cc1cc(Cl)cc(-c2ccnc3cc(CN4C(=O)CCC4=O)sc23)c1OC1CCN(C(=O)OC(C)(C)C)CC1` [U15] showed a pKd (USP7 CD + UBL 1-5; [2]) of 4.00 to 6.00, a pKd (USP7 CD + UBL 1-5; [1]) of 4.00 to 6.00 and a pIC50 (USP7) of under 4.00.

For `CCc1c(-c2ccc(C(=O)NCCOCCOCCOCCNC(=O)OC(C)(C)C)nc2)ccc(N)c1C1=CC=C(O)CC1` [U44], the pKd (USP7 CD + UBL 1-5; [1]) was 4.00 to 6.00 and the pIC50 (USP7) was 4.00 to 6.00.

With `CN1CCC(C(=O)Nc2nc3ccc(NS(=O)(=O)N4CC(F)C4)cc3s2)CC1` [U89] the pKd (USP7 CD + UBL 1-5; [1]) was under 4.00 and the pIC50 (USP7) was under 4.00.

Molecule `CN1CCCn2nc(C(=O)Nc3nc4ccc(NS(=O)(=O)c5cn6ccccc6n5)cc4s3)cc2C1` [U110] has a pKd (USP7 CD + UBL 1-5; [1]) of 4.00 to 6.00 and a pIC50 (USP7) of under 4.00.
